Data from ChEMBL document CHEMBL3758161, “Synthesis and evaluation of antibacterial and antitumor activities of new galactopyranosylated amino alcohols” (Eur J Med Chem, 2016).
Values after ≈ are worked out from the molar mass of the structure shown.

Columns and labels:
[1] = Lipophilicity, log P of the compound; type: physicochemical; settings: octanol/water
[2] = system: Mycobacterium tuberculosis; assay: microbe, parasite or virus in culture; settings: H37Rv
Description: Antibacterial activity against Mycobacterium tuberculosis H37Rv

Escherichia coli [3] = assay: Bactericidal activity against gram-negative Escherichia coli ATCC 11229 after 24 hrs by broth dilution method; type: functional; settings: ATCC 11229, 24 h
Staphylococcus aureus [4] = assay: Antibacterial activity against gram-positive Staphylococcus aureus ATCC 3591 at 5 mg/ml incubated overnight by agar well diffusion method; type: functional; settings: read-out: DIZ
Staphylococcus aureus [5] = assay: Bactericidal activity against gram-positive Staphylococcus aureus ATCC 3591 after 24 hrs by broth dilution method; type: functional; settings: ATCC 3591, 24 h
Pseudomonas aeruginosa [6] = assay: Bactericidal activity against gram-negative Pseudomonas aeruginosa ATCC 2785 after 24 hrs by broth dilution method; type: functional; settings: ATCC 2785, 24 h
[7] = system: Staphylococcus epidermidis; assay: Antibacterial activity against gram-positive Staphylococcus epidermidis ATCC 12228 at 5 mg/ml incubated overnight by agar well diffusion method; type: functional; settings: read-out: DIZ
[8] = system: Staphylococcus epidermidis; assay: Bactericidal activity against gram-positive Staphylococcus epidermidis ATCC 12228 after 24 hrs by broth dilution method; type: functional; settings: ATCC 12228, 24 h
Pseudomonas aeruginosa [9] = assay: Antibacterial activity against gram-negative Pseudomonas aeruginosa ATCC 2785 at 5 mg/ml incubated overnight by agar well diffusion method; type: functional; settings: read-out: DIZ
MCF7 [10] = assay: cells; settings: Homo sapiens, MCF7, 24 h
Description: Cytotoxicity against human MCF7 cells assessed as cell growth inhibition after 24 hrs by XTT assay

M059J = assay: Cytotoxicity against human M059J cells assessed as cell growth inhibition after 24 hrs by XTT assay; type: functional, cell-based
Escherichia coli [11] = assay: Antibacterial activity against gram-negative Escherichia coli ATCC 11229 at 5 mg/ml incubated overnight by agar well diffusion method; type: functional; settings: read-out: DIZ
[12] = Cytotoxicity against human GM07492A cells assessed as cell growth inhibition after 24 hrs by XTT assay; type: cell-based
MCF7 [13] = assay: Selectivity index, ratio of IC50 for human GM07492A cells to IC50 for human MCF7 cells; type: functional
HeLa = assay: Cytotoxicity against human HeLa cells assessed as cell growth inhibition after 24 hrs by XTT assay; type: functional, cell-based

CCCCCCCCCCC(O)CNCCO (configuration not stated)
logP [1]: 3.62
MIC [2]: 102 µM (≈ 25 µg/mL)

CCCCCCCCCCN(CCO)CC(O)COC[C@H]1O[C@@H]2OC(C)(C)O[C@@H]2[C@H]2OC(C)(C)O[C@H]21 (mixture of isomers)
logP [1]: 3.39
MBC (Escherichia coli [3]): > 988 µM
zone of inhibition at 5000 µg/mL (Staphylococcus aureus [4]): 20 mm
MBC (Staphylococcus aureus [5]): 123 µM
MIC [2]: 96 µM
MBC (Pseudomonas aeruginosa [6]): 988 µM
zone of inhibition at 5000 µg/mL [7]: 20 mm
MBC [8]: 61 µM

CCCCCCCCCCNCCO
logP [1]: 3.09
MIC [2]: 248 µM (≈ 49.9 µg/mL)

CCCCCCCCCCCCNCCN
logP [1]: 4.69
MIC [2]: 27 µM (≈ 6.17 µg/mL)

CCCCCCCCCCCCC(O)CNCCO (configuration not stated)
logP [1]: 4.69
MIC [2]: 46 µM (≈ 12.6 µg/mL)

CCCCCCCCNCCO
logP [1]: 2.55
MIC [2]: 577 µM (≈ 100 µg/mL)

CCCCCCCCC(O)CNCCO (configuration not stated)
logP [1]: 2.14
MIC [2]: 460 µM (≈ 100 µg/mL)

CCCCCCCCCCC(O)CN(CCO)CC(O)COC[C@H]1O[C@@H]2OC(C)(C)O[C@@H]2[C@H]2OC(C)(C)O[C@H]21 (mixture of isomers)
logP [1]: 3.37
MBC (Escherichia coli [3]): > 911 µM
zone of inhibition at 5000 µg/mL (Pseudomonas aeruginosa [9]): 20 mm
MBC (Staphylococcus aureus [5]): > 911 µM
MIC [2]: 175 µM
MBC (Pseudomonas aeruginosa [6]): > 911 µM
zone of inhibition at 5000 µg/mL [7]: 11 mm
MBC [8]: 28 µM

CCCCCCCCCCCCNCCNCC(O)COC[C@H]1O[C@@H]2OC(C)(C)O[C@@H]2[C@H]2OC(C)(C)O[C@H]21 (mixture of isomers)
logP [1]: 3.99
MBC (Escherichia coli [3]): 235 µM
zone of inhibition at 5000 µg/mL (Pseudomonas aeruginosa [9]): 20 mm
zone of inhibition at 5000 µg/mL (Staphylococcus aureus [4]): 30 mm
IC50 (MCF7 [10]): 11.9 µM
MBC (Staphylococcus aureus [5]): 15 µM
IC50 (M059J): 10 µM
MIC [2]: 91 µM
zone of inhibition at 5000 µg/mL (Escherichia coli [11]): 10 mm
MBC (Pseudomonas aeruginosa [6]): > 940 µM
zone of inhibition at 5000 µg/mL [7]: 20 mm
IC50 [12]: 7.3 µM
Ratio IC50 (MCF7 [13]): 0.6
MBC [8]: 15 µM

CCCCCCCCCCCCCCNCCN
logP [1]: 4.5
MIC [2]: 97 µM (≈ 24.9 µg/mL)

CC[C@@]1(O)C(=O)OCc2c1cc1n(c2=O)Cc2cc3ccccc3nc2-1 [CAMPTOTHECIN]
IC50 (MCF7 [10]): 6 µM
IC50 (M059J): 5.5 µM
IC50 (HeLa): 19.8 µM
IC50 [12]: 3.2 µM
Ratio IC50 (MCF7 [13]): 0.5

CCCCCCCCCCCCN(CCO)C[C@@H](O)COC[C@H]1O[C@@H]2OC(C)(C)O[C@@H]2[C@H]2OC(C)(C)O[C@H]21
logP [1]: 4.22
IC50 (MCF7 [10]): 75.7 µM
IC50 (M059J): 97.8 µM
MIC [2]: 29 µM (≈ 15.8 µg/mL)
IC50 (HeLa): 105 µM
IC50 [12]: 260 µM
Ratio IC50 (MCF7 [13]): 3.4

COc1cccc2c1C(=O)c1c(O)c3c(c(O)c1C2=O)C[C@@](O)(C(=O)CO)C[C@@H]3O[C@H]1C[C@H](N)[C@H](O)[C@H](C)O1 [DOXORUBICIN]
IC50 (M059J): 6.9 µM
IC50 (HeLa): 21.9 µM
IC50 [12]: 0.5 µM

NC(=O)N/N=C/c1ccc([N+](=O)[O-])o1 [NITROFURAZONE]
zone of inhibition at 5000 µg/mL (Pseudomonas aeruginosa [9]): 15 mm
zone of inhibition at 5000 µg/mL (Staphylococcus aureus [4]): 31 mm
zone of inhibition at 5000 µg/mL (Escherichia coli [11]): 35 mm
zone of inhibition at 5000 µg/mL [7]: 25 mm

CCCCCCCCCCNCCCNCC(O)COC[C@H]1O[C@@H]2OC(C)(C)O[C@@H]2[C@H]2OC(C)(C)O[C@H]21 (mixture of isomers)
logP [1]: 3.26
MBC (Escherichia coli [3]): 241 µM
zone of inhibition at 5000 µg/mL (Staphylococcus aureus [4]): 12 mm
IC50 (MCF7 [10]): 32.2 µM
MBC (Staphylococcus aureus [5]): 60 µM
IC50 (M059J): 53.8 µM
MIC [2]: 23 µM
zone of inhibition at 5000 µg/mL (Escherichia coli [11]): 28 mm
MBC (Pseudomonas aeruginosa [6]): > 965 µM
IC50 (HeLa): 57 µM
IC50 [12]: 29.4 µM
Ratio IC50 (MCF7 [13]): 0.9
MBC [8]: 15 µM

CCCCCCCCCCNCCCN
logP [1]: 2.82
MIC [2]: 116 µM (≈ 24.9 µg/mL)

CCCCCCCCC(O)CN(CCO)CC(O)COC[C@H]1O[C@@H]2OC(C)(C)O[C@@H]2[C@H]2OC(C)(C)O[C@H]21 (mixture of isomers)
logP [1]: 2.43
MBC (Escherichia coli [3]): > 959 µM
zone of inhibition at 5000 µg/mL (Pseudomonas aeruginosa [9]): 18 mm
zone of inhibition at 5000 µg/mL (Staphylococcus aureus [4]): 16 mm
MBC (Staphylococcus aureus [5]): 240 µM
MIC [2]: > 187 µM
MBC (Pseudomonas aeruginosa [6]): > 959 µM
zone of inhibition at 5000 µg/mL [7]: 22 mm
MBC [8]: 120 µM
